Data reported in patent publication US20120251442A1, “Methods for Treatment of Tumors by Direct Administration of a Radioisotope” (GABRIEL INSTITUTE, INC., priority 2007, published 2012).

Assay: Radioisotope delivered into a drilled hole in the femur, tissue counting at two hours
Format: in vivo, Sprague Dawley rat
Protocol: A miniature drill was used to create a hole in the femur of an anesthetized Sprague Dawley rat. A miniature pump was used to deliver 3 μL of this Ho-166 composition into the hole created by the drill.
Two hours after the injection of the dose the rat was sacrificed and dissected. Tissues/organs excised and counted included bone (opposite femur), liver, kidneys, spleen, muscle, blood, heart, lung, pancreas as well as the injected femur. Counting was done by the use of a NaI gamma detector to determine the presence of radioactivity.
The amount of activity found in the site of injection was 92% of the injected dose. Less than 2% of the dose was found in the liver or in the rest of the bone. Total skeletal dose was determined by multiplying the % dose in the opposite femur by 25.
Ho-166 in 0.1M HCl was obtained from MURR. The pH was measured with pH paper showing a pH of about 1. The miniature drill described above in Example 6 was used to create a hole in the femur of an anesthetized Sprague Dawley rat. The miniature pump described above was used to deliver 3 μL of Ho-166 solution into the hole created by the drill. Two hours after the injection of the dose the rat was sacrificed and dissected. The amount of activity found in the site of injection was 5% of the injected dose. However 52% of the dose was found in the liver and 23% of the dose was found in the rest of the bone. Total skeletal dose was determined by multiplying the % dose in the opposite femur by 25.
The miniature drill described in Example 6 was used to create a hole in the femur of an anesthetized Sprague Dawley rat. The miniature pump described in Example 6 was used to deliver 2 μL of Sm-153-DOTMP solution into the hole created by the drill. Two hours after the injection of the dose the rat was sacrificed and dissected. The amount of activity found in the site of injection was 9% of the injected dose. None of the radioactivity was found in the liver and about 20% was found in the rest of the bone. Total skeletal dose was determined by multiplying the % dose in the opposite femur by 25. An average of 65% of the injected dose was found in the urine.

[1] = two hours after injection into femur hole

Structure (SMILES): O=P([O-])(O)CN1CCN(CP(=O)([O-])O)CCN(CP(=O)(O)O)CCN(CP(=O)([O-])O)CC1.[153Sm+3] [Sm-153-DOTMP]
- Activity found in the site of injection, % of the injected dose [1]: 9%
- Dose found in the liver [1]: None
- Injected dose found in the urine [1]: 65%
- Dose found in the rest of the bone (two hours after injection, % dose in opposite femur multiplied by 25): about 20%
